Test results taken from US10590123B2, “Pesticidally active amide heterocyclic derivatives with sulphur containing substituents” (SYNGENTA PARTICIPATIONS AG, priority 2014, dated 2020).

Key:
Type in all cases: in vivo
[1] = tested on: Myzus persicae (Green Peach Aphid); test: Example B8: Activity against Myzus persicae, sprayed sunflower leaf discs; settings: foliar, 144 h, application rate 200 ppm, aphid population of mixed ages, 6 days after infestation
Description: Example B8: Activity Against Myzus persicae (Green Peach Aphid)
Sunflower leaf discs were placed on agar in a 24-well microtiter plate and sprayed with aqueous test solutions prepared from 10′000 ppm DMSO stock solutions. After drying, the leaf discs were infested with an aphid population of mixed ages. The samples were assessed for mortality 6 days after infestation.

[2] = tested on: Spodoptera littoralis (Egyptian Cotton Leaf Worm); test: Example B2: Activity against Spodoptera littoralis, systemic via lettuce roots in agar; settings: 144 h, application rate 12.5 ppm, 6 days after infestation, read-out: control in at least one of the three categories (mortality, anti-feedancy or growth inhibition)
Description: Example B2: Activity Against Spodoptera littoralis (Egyptian Cotton Leaf Worm)
Test compounds were applied by pipette from 10′000 ppm DMSO stock solutions into 24-well plates and mixed with agar. Lettuce seeds were placed on the agar and the multi well plate was closed by another plate which contains also agar. After 7 days the roots have absorbed the compound and the lettuce has grown into the lid plate. The lettuce leafs were now cut off into the lid plate. Spodoptera eggs were pipetted through a plastic stencil on a humid gel blotting paper and the plate closed with it.
The samples were assessed for mortality, anti-feedant effect and growth inhibition in comparison to untreated samples 6 days after infestation.

[3] = tested on: Diabrotica Balteata (Corn Root Worm); test: Example B4: Activity against Diabrotica balteata, sprayed maize sprouts; settings: 96 h, application rate 200 ppm, L2 larvae, 4 days after infestation, read-out: effect in at least one of the two categories (mortality or growth inhibition)
Description: Example B4: Activity Against Diabrotica Balteata (Corn Root Worm)
Maize sprouts, placed on an agar layer in 24-well microtiter plates were treated with aqueous test solutions prepared from 10′000 ppm DMSO stock solutions by spraying. After drying, the plates were infested with L2 larvae (6 to 10 per well). The samples were assessed for mortality and growth inhibition in comparison to untreated samples 4 days after infestation.

[4] = tested on: Euschistus heros (Neotropical Brown Stink Bug); test: Example B7: Activity against Euschistus heros, sprayed soybean leaf; settings: 120 h, application rate 200 ppm, N-2 nymphs, 5 days after infestation
Description: Example B7: Activity Against Euschistus heros (Neotropical Brown Stink Bug)
Soybean leaf on agar in 24-well microtiter plates were sprayed with aqueous test solutions prepared from 10′000 ppm DMSO stock solutions. After drying the leaf were infested with N-2 nymphs. The samples were assessed for mortality 5 days after infestation.

[5] = tested on: Bemisia tabaci (Cotton White Fly); test: Example B6: Activity against Bemisia tabaci, sprayed cotton leaf discs; settings: foliar, 144 h, application rate 200 ppm, adult white flies, 6 days after incubation
Description: Example B6: Activity Against Bemisia tabaci (Cotton White Fly)
Cotton leaf discs were placed on agar in 24-well microtiter plates and sprayed with aqueous test solutions prepared from 10′000 ppm DMSO stock solutions. After drying the leaf discs were infested with adult white flies. The samples were checked for mortality 6 days after incubation.

[6] = tested on: Plutella xylostella (Diamond Back Moth); test: Example B3: Activity against Plutella xylostella, artificial diet; settings: 120 h, application rate 200 ppm, L2 larvae, 5 days after infestation, read-out: effect in at least one of the two categories (mortality or growth inhibition)
Description: Example B3: Activity Against Plutella xylostella (Diamond Back Moth)
24-well microtiter plates with artificial diet were treated with aqueous test solutions prepared from 10′000 ppm DMSO stock solutions by pipetting. After drying, the plates were infested with L2 larvae (10 to 15 per well). The samples were assessed for mortality and growth inhibition in comparison to untreated samples 5 days after infestation.

[7] = tested on: Spodoptera littoralis (Egyptian Cotton Leaf Worm); test: Example B1: Activity against Spodoptera littoralis, sprayed cotton leaf discs; settings: foliar, 72 h, application rate 200 ppm, L1 larvae, 3 days after infestation, read-out: control in at least one of the three categories (mortality, anti-feedancy or growth inhibition)
Description: Example B1: Activity Against Spodoptera littoralis (Egyptian Cotton Leaf Worm)
Cotton leaf discs were placed on agar in 24-well microtiter plates and sprayed with aqueous test solutions prepared from 10′000 ppm DMSO stock solutions. After drying the leaf discs were infested with five L1 larvae. The samples were assessed for mortality, anti-feedant effect, and growth inhibition in comparison to untreated samples 3 days after infestation. Control of Spodoptera littoralis by a test sample is when at least one of mortality, anti-feedant effect, and growth inhibition is higher than the untreated sample.

CCS(=O)(=O)c1cc(-c2ncc(Cl)cc2Cl)cnc1C(=O)N(C)c1nnc(C(F)(F)F)s1 [Compound P47]
≥ 80%: mortality at 200 ppm [1] | percent control (mortality, anti-feedant effect or growth inhibition) at 12.5 ppm [2] | percent effect (mortality or growth inhibition) at 200 ppm [3] | mortality at 200 ppm [4] | mortality at 200 ppm [5] | percent effect (mortality or growth inhibition) at 200 ppm [6] | percent control (mortality, anti-feedant effect or growth inhibition) at 200 ppm [7]

CCS(=O)(=O)c1cc(-c2cccc(C(F)(F)F)c2)cnc1C(=O)N(C)c1nnc(C(F)(F)F)s1 [Compound P37]
≥ 80%: percent effect (mortality or growth inhibition) at 200 ppm [3] | mortality at 200 ppm [4] | mortality at 200 ppm [5] | percent effect (mortality or growth inhibition) at 200 ppm [6] | percent control (mortality, anti-feedant effect or growth inhibition) at 200 ppm [7]

CCS(=O)(=O)c1cc(-c2cccc3c2OC(F)(F)O3)cnc1C(=O)N(C)c1nnc(C(F)(F)F)s1 [Compound P29]
≥ 80%: mortality at 200 ppm [1] | percent control (mortality, anti-feedant effect or growth inhibition) at 12.5 ppm [2] | percent effect (mortality or growth inhibition) at 200 ppm [3] | mortality at 200 ppm [4] | percent effect (mortality or growth inhibition) at 200 ppm [6] | percent control (mortality, anti-feedant effect or growth inhibition) at 200 ppm [7]

CCS(=O)(=O)c1cc(-c2nccc(C(F)(F)F)n2)cnc1C(=O)N(C)c1nnc(C(F)(F)F)s1 [Compound P41]
≥ 80%: mortality at 200 ppm [1] | percent control (mortality, anti-feedant effect or growth inhibition) at 12.5 ppm [2] | percent effect (mortality or growth inhibition) at 200 ppm [3] | mortality at 200 ppm [4] | mortality at 200 ppm [5] | percent effect (mortality or growth inhibition) at 200 ppm [6] | percent control (mortality, anti-feedant effect or growth inhibition) at 200 ppm [7]

CCS(=O)(=O)c1cc(-c2ccc(C(F)(F)F)cc2)cnc1C(=O)N(C)c1nnc(C(F)(F)F)s1 [Compound P4]
≥ 80%: percent effect (mortality or growth inhibition) at 200 ppm [3] | mortality at 200 ppm [4] | mortality at 200 ppm [5] | percent effect (mortality or growth inhibition) at 200 ppm [6] | percent control (mortality, anti-feedant effect or growth inhibition) at 200 ppm [7]

CCS(=O)(=O)c1cc(-c2ncc(F)cc2F)cnc1C(=O)N(C)c1nnc(C(F)(F)F)s1 [Compound P44]
≥ 80%: mortality at 200 ppm [1] | percent control (mortality, anti-feedant effect or growth inhibition) at 12.5 ppm [2] | percent effect (mortality or growth inhibition) at 200 ppm [3] | mortality at 200 ppm [4] | mortality at 200 ppm [5] | percent effect (mortality or growth inhibition) at 200 ppm [6] | percent control (mortality, anti-feedant effect or growth inhibition) at 200 ppm [7]

CCS(=O)(=O)c1cc(-c2ccccn2)cnc1C(=O)N(C)c1nnc(C(F)(F)F)s1 [Compound P54]
≥ 80%: mortality at 200 ppm [1] | percent control (mortality, anti-feedant effect or growth inhibition) at 12.5 ppm [2] | percent effect (mortality or growth inhibition) at 200 ppm [3] | mortality at 200 ppm [4] | percent effect (mortality or growth inhibition) at 200 ppm [6] | percent control (mortality, anti-feedant effect or growth inhibition) at 200 ppm [7]

CCS(=O)(=O)c1cc(-c2ncc(C(F)(F)F)cc2F)cnc1C(=O)N(C)c1nnc(C(F)(F)F)s1 [Compound P48]
≥ 80%: percent control (mortality, anti-feedant effect or growth inhibition) at 12.5 ppm [2] | percent effect (mortality or growth inhibition) at 200 ppm [3] | mortality at 200 ppm [4] | percent effect (mortality or growth inhibition) at 200 ppm [6] | percent control (mortality, anti-feedant effect or growth inhibition) at 200 ppm [7]

CCS(=O)(=O)c1cc(-c2ncccn2)cnc1C(=O)N(C)c1nnc(C(F)(F)F)s1 [Compound P43]
≥ 80%: mortality at 200 ppm [1] | percent control (mortality, anti-feedant effect or growth inhibition) at 12.5 ppm [2] | percent effect (mortality or growth inhibition) at 200 ppm [3] | mortality at 200 ppm [4] | percent effect (mortality or growth inhibition) at 200 ppm [6] | percent control (mortality, anti-feedant effect or growth inhibition) at 200 ppm [7]

CCS(=O)(=O)c1cc(-c2ccnc(F)c2)cnc1C(=O)N(C)c1nnc(C(F)(F)F)s1 [Compound P56]
≥ 80%: mortality at 200 ppm [1] | percent control (mortality, anti-feedant effect or growth inhibition) at 12.5 ppm [2] | percent effect (mortality or growth inhibition) at 200 ppm [3] | mortality at 200 ppm [4] | mortality at 200 ppm [5] | percent effect (mortality or growth inhibition) at 200 ppm [6] | percent control (mortality, anti-feedant effect or growth inhibition) at 200 ppm [7]

CCS(=O)(=O)c1cc(-c2ccc(F)cc2F)cnc1C(=O)N(C)c1nnc(C(F)(F)F)s1 [Compound P25]
≥ 80%: mortality at 200 ppm [1] | percent control (mortality, anti-feedant effect or growth inhibition) at 12.5 ppm [2] | percent effect (mortality or growth inhibition) at 200 ppm [3] | mortality at 200 ppm [4] | mortality at 200 ppm [5] | percent effect (mortality or growth inhibition) at 200 ppm [6] | percent control (mortality, anti-feedant effect or growth inhibition) at 200 ppm [7]

CCS(=O)(=O)c1cc(-c2ccc(C#N)cn2)cnc1C(=O)N(C)c1nnc(C(F)(F)F)s1 [Compound P64, 5-(5-cyano-2-pyridyl)-3-ethylsulfonyl-N-methyl-N-[5-(trifluoromethyl)-1,3,4-thiadiazol-2-yl]pyridine-2-carboxamide]
≥ 80%: mortality at 200 ppm [1] | percent effect (mortality or growth inhibition) at 200 ppm [3] | mortality at 200 ppm [4] | percent effect (mortality or growth inhibition) at 200 ppm [6] | percent control (mortality, anti-feedant effect or growth inhibition) at 200 ppm [7]

CCS(=O)(=O)c1cc(-c2cccc(F)c2)cnc1C(=O)N(C)c1nnc(C(F)(F)F)s1 [Compound P26]
≥ 80%: mortality at 200 ppm [1] | percent control (mortality, anti-feedant effect or growth inhibition) at 12.5 ppm [2] | percent effect (mortality or growth inhibition) at 200 ppm [3] | mortality at 200 ppm [4] | percent effect (mortality or growth inhibition) at 200 ppm [6] | percent control (mortality, anti-feedant effect or growth inhibition) at 200 ppm [7]

CCS(=O)(=O)c1cc(-c2cc(F)cc(F)c2)cnc1C(=O)N(C)c1nnc(C(F)(F)F)s1 [Compound P35]
≥ 80%: mortality at 200 ppm [1] | percent control (mortality, anti-feedant effect or growth inhibition) at 12.5 ppm [2] | percent effect (mortality or growth inhibition) at 200 ppm [3] | mortality at 200 ppm [4] | mortality at 200 ppm [5] | percent effect (mortality or growth inhibition) at 200 ppm [6] | percent control (mortality, anti-feedant effect or growth inhibition) at 200 ppm [7]

CCS(=O)(=O)c1cc(-c2ncc(Cl)cn2)cnc1C(=O)N(C)c1nnc(C(F)(F)F)s1 [Compound P62]
≥ 80%: mortality at 200 ppm [1] | percent effect (mortality or growth inhibition) at 200 ppm [3] | mortality at 200 ppm [4] | percent effect (mortality or growth inhibition) at 200 ppm [6] | percent control (mortality, anti-feedant effect or growth inhibition) at 200 ppm [7]

CCSc1cc(-n2ccc(C(F)(F)F)n2)cnc1C(=O)Nc1nnc(C(F)(F)C(F)(F)F)s1 [Compound P6]
≥ 80%: percent control (mortality, anti-feedant effect or growth inhibition) at 12.5 ppm [2]

CCS(=O)(=O)c1cc(-c2cncs2)cnc1C(=O)N(C)c1nnc(C(F)(F)F)s1 [Compound P40]
≥ 80%: mortality at 200 ppm [1] | percent effect (mortality or growth inhibition) at 200 ppm [3] | mortality at 200 ppm [4] | percent effect (mortality or growth inhibition) at 200 ppm [6] | percent control (mortality, anti-feedant effect or growth inhibition) at 200 ppm [7]

CCS(=O)(=O)c1cc(-c2cccc(OC(F)(F)F)c2)cnc1C(=O)N(C)c1nnc(C(F)(F)F)s1 [Compound P31]
≥ 80%: percent control (mortality, anti-feedant effect or growth inhibition) at 12.5 ppm [2] | percent effect (mortality or growth inhibition) at 200 ppm [3] | mortality at 200 ppm [4] | percent effect (mortality or growth inhibition) at 200 ppm [6] | percent control (mortality, anti-feedant effect or growth inhibition) at 200 ppm [7]

CCS(=O)(=O)c1cc(-c2cc(Cl)ccn2)cnc1C(=O)N(C)c1nnc(C(F)(F)F)s1 [Compound P42]
≥ 80%: mortality at 200 ppm [1] | percent control (mortality, anti-feedant effect or growth inhibition) at 12.5 ppm [2] | percent effect (mortality or growth inhibition) at 200 ppm [3] | mortality at 200 ppm [4] | percent effect (mortality or growth inhibition) at 200 ppm [6] | percent control (mortality, anti-feedant effect or growth inhibition) at 200 ppm [7]

CCS(=O)(=O)c1cc(-c2cccc(SC)c2)cnc1C(=O)N(C)c1nnc(C(F)(F)F)s1 [Compound P30]
≥ 80%: mortality at 200 ppm [1] | percent effect (mortality or growth inhibition) at 200 ppm [3] | mortality at 200 ppm [4] | mortality at 200 ppm [5] | percent effect (mortality or growth inhibition) at 200 ppm [6] | percent control (mortality, anti-feedant effect or growth inhibition) at 200 ppm [7]
